Experimental data from ChEMBL document CHEMBL4229454, “Structural optimization and in vitro profiling of N-phenylbenzamide-based farnesoid X receptor antagonists” (Bioorg Med Chem, 2018).
Converted amounts (≈) assume the structure as drawn. The source made the active and inactive calls. The calls are words filed in the database; no cut-off is given here.

Assays:
HepG2 [1] = experiment: Cytotoxicity against human HepG2 cells assessed as reduction in cell viability at 100 uM after 48 hrs by WST1 assay relative to control; format: cell-based; details: hepg2, 48 h
[2] = molecular target: Luciferin 4-monooxygenase (Photinus pyralis) (UniProt P08659); experiment: Inhibition of GW4064-induced firefly luciferase expression in HeLa cells co-expressing full length human FXR, BSEP-pGL3 and pSG5-hRXR at 1 uM treated at 23 hrs post GW4064 treatment for 1 hr by luminescence assay; format: cell-based
[3] = molecular target: T1, Bile acid receptor (Homo sapiens) (UniProt Q96RI1); experiment: Antagonist activity at full length human FXR expressed in HeLa cells co-expressing BSEP-pGL3/pSG5-hRXR assessed as inhibition of GW4064-induced receptor activation at 30 uM after 24 hrs by luciferase reporter gene assay; format: cell-based
T1 sequence (whole entry): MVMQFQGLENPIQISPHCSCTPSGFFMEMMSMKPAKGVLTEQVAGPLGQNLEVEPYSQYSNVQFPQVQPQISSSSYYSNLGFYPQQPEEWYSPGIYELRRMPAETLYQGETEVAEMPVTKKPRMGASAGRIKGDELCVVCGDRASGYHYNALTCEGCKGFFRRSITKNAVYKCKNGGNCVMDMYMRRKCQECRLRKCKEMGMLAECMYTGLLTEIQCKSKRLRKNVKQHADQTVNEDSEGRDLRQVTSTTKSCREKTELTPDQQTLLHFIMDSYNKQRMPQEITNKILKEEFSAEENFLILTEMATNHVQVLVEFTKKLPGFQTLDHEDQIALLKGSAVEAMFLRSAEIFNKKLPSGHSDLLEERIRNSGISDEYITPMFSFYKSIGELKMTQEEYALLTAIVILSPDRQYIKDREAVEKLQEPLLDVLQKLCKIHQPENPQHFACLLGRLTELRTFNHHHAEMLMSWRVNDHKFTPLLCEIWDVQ

[4] = Aqueous solubility of the compound; format: physicochemical; details: water
[5] = molecular target: T2, Peroxisome proliferator-activated receptor gamma (Homo sapiens) (UniProt P37231); experiment: Agonist activity at GAL4-fused human PPARgamma LBD expressed in HEK293T cells at 1 uM after 12 to 14 hrs by luciferase reporter gene assay; format: cell-based
T2 sequence (whole entry): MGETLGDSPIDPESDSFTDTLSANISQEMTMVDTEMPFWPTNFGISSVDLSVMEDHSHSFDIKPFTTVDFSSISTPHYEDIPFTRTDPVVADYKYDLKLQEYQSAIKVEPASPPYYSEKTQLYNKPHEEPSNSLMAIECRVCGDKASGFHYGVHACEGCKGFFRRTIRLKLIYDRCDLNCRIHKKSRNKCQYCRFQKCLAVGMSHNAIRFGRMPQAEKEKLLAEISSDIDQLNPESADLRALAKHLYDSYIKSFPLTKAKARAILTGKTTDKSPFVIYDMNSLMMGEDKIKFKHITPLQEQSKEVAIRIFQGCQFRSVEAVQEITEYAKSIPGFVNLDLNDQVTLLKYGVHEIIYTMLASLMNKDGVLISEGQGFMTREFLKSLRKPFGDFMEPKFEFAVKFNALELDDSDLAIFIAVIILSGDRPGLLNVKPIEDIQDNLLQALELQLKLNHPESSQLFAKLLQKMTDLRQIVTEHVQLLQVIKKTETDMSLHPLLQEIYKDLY

[6] = molecular target: T3, Retinoic acid receptor RXR-alpha (Homo sapiens) (UniProt P19793); experiment: Agonist activity at GAL4-fused human RXRalpha LBD expressed in HEK293T cells at 1 uM after 12 to 14 hrs by luciferase reporter gene assay; format: cell-based
T3 sequence (whole entry): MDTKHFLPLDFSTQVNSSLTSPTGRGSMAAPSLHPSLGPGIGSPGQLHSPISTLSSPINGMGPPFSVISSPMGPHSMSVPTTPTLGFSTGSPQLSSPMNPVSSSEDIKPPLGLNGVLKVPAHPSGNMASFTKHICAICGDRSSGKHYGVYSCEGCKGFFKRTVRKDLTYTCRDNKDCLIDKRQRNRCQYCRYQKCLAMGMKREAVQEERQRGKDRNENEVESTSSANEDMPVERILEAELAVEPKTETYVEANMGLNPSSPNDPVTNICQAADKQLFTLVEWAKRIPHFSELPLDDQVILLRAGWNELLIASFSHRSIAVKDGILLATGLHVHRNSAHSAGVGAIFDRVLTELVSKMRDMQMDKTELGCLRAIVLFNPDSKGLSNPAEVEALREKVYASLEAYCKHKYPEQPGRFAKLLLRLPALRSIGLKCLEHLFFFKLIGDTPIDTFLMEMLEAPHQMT

[7] = Metabolic stability in Sprague-Dawley rat liver microsomes assessed as parent compound remaining at 10 uM in presence of NADPH measured after 30 mins by HPLC analysis; format: ADME, microsome; details: read-out: Stability
[8] = molecular target: T4, Nuclear receptor subfamily 1 group I member 3 (Homo sapiens, UniProt Q14994); experiment: Antagonist activity at GAL4-fused human CAR LBD expressed in HEK293T cells at 1 uM after 12 to 14 hrs by luciferase reporter gene assay; format: cell-based
T4 sequence (Q14994 whole entry): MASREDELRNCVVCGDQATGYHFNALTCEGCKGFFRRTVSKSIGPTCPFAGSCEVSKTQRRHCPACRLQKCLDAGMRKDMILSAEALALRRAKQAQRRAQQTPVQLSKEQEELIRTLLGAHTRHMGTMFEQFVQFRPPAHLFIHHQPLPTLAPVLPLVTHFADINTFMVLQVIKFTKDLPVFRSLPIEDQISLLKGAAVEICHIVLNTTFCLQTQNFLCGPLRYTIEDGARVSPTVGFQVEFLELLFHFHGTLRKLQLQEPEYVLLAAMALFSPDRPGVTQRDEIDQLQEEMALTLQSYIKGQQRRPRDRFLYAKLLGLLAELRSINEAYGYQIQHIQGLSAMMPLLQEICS

[9] = Metabolic stability in Sprague-Dawley rat liver microsomes assessed as parent compound remaining at 10 uM in presence of NADPH measured after 60 mins by HPLC analysis; format: ADME, microsome; details: read-out: Stability
[10] = molecular target: T5, Oxysterols receptor LXR-alpha (Homo sapiens) (UniProt Q13133); experiment: Agonist activity at GAL4-fused human LXRalpha LBD expressed in HEK293T cells at 1 uM after 12 to 14 hrs by luciferase reporter gene assay; format: cell-based
T5 sequence (whole entry): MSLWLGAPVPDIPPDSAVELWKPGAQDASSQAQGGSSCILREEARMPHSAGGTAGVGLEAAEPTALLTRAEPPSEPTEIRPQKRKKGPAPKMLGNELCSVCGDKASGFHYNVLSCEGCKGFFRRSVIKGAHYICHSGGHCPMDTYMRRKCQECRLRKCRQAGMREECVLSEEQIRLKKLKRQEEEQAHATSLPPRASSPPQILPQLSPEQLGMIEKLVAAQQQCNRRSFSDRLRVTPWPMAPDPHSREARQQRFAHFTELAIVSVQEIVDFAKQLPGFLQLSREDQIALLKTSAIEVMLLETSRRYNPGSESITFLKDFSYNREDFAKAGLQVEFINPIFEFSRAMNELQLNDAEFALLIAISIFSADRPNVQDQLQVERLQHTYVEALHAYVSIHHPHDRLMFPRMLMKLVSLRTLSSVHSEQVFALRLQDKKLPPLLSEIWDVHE

[11] = molecular target: T4, Nuclear receptor subfamily 1 group I member 3; experiment: Agonist activity at GAL4-fused human CAR LBD expressed in HEK293T cells at 1 uM after 12 to 14 hrs by luciferase reporter gene assay; format: cell-based
[12] = molecular target: T2, Peroxisome proliferator-activated receptor gamma (Homo sapiens); experiment: Antagonist activity at GAL4-fused human PPARgamma LBD expressed in HEK293T cells at 1 uM after 12 to 14 hrs by luciferase reporter gene assay; format: cell-based
HEK293 = experiment: Cytotoxicity against HEK293 cells assessed as reduction in cell viability at >10 uM after 48 hrs by WST1 assay; format: cell-based; details: human, hek293, 48 h
[13] = Metabolic stability in Sprague-Dawley rat liver microsomes assessed as parent compound remaining at 10 uM in presence of NADPH measured immediately by HPLC analysis; format: ADME, microsome; details: read-out: Stability
HepG2 [14] = experiment: Cytotoxicity against human HepG2 cells assessed as reduction in cell viability up to 100 uM after 48 hrs by WST1 assay; format: cell-based; details: hepg2, 48 h
[15] = Metabolic stability in Sprague-Dawley rat liver microsomes assessed as parent compound remaining at 10 uM in presence of NADPH measured after 15 mins by HPLC analysis; format: ADME, microsome; details: read-out: Stability
[16] = molecular target: T3, Retinoic acid receptor RXR-alpha (Homo sapiens); experiment: Antagonist activity at GAL4-fused human RXRalpha LBD expressed in HEK293T cells at 1 uM after 12 to 14 hrs by luciferase reporter gene assay; format: cell-based
HeLa = experiment: Cytotoxicity against human HeLa cells co-expressing full length human FXR, BSEP-pGL3 and pSG5-hRXR assessed as reduction in cell viability up to 50 uM after 48 hrs by WST1 assay; format: ADME, cell-based
[17] = molecular target: T5, Oxysterols receptor LXR-alpha (Homo sapiens); experiment: Antagonist activity at GAL4-fused human LXRalpha LBD expressed in HEK293T cells at 1 uM after 12 to 14 hrs by luciferase reporter gene assay; format: cell-based

Luciferin 4-monooxygenase (Photinus pyralis), sequence (P08659 whole entry): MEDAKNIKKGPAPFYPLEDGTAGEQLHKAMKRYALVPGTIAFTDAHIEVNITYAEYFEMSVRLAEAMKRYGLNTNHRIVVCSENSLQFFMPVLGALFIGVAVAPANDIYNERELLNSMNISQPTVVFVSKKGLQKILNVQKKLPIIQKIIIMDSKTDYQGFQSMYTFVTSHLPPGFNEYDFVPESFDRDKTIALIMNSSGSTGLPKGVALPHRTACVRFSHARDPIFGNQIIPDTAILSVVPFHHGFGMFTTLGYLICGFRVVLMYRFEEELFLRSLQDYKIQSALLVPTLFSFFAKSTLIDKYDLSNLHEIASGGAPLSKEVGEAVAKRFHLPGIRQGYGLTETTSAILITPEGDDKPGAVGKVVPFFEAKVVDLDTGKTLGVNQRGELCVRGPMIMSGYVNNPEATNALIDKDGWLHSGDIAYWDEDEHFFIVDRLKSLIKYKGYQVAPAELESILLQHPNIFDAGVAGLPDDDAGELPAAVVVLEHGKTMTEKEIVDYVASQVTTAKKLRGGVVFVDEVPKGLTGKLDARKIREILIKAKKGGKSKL

**Q.** For COc1cc(C(=O)Nc2ccc(CC(=O)O)cc2)ccc1C(C)(C)C, which Activity (HepG2 [1]) is on record?
**A.** 112%

**Q.** For CC(C)(C)c1ccc(C(=O)Nc2ccccc2CC(=O)O)cc1, which Activity (HepG2 [1]) is on record?
**A.** 118%

**Q.** For CC(C)(C)c1ccc(C(=O)Nc2cccc(CC(=O)O)c2)cc1, which inhibition [2] is on record?
**A.** inactive

**Q.** Which inhibition [3] does the source give for COc1ccc(C(C)(C)C)cc1C(=O)Nc1ccc(CC(=O)O)cc1 here?
**A.** inactive

**Q.** For COc1cc(C(C)(C)C)ccc1C(=O)Nc1ccc(CC(=O)O)cc1, which solubility [4] is on record?
**A.** 0.016 mg/mL (≈ 46.9 µM)

**Q.** What about the Activity [5] of the same compound?
**A.** inactive

**Q.** And the Activity [6]?
**A.** inactive

**Q.** What about the remaining at 0.5 h, 10 µM [7] of the same compound?
**A.** 96%

**Q.** And the “inhibition (INH)” value [8]?
**A.** Not Active

**Q.** What about the remaining at 1 h, 10 µM [9] of the same compound?
**A.** 97%

**Q.** What about the Activity [10] of the same compound?
**A.** inactive

**Q.** What about the Activity [11] of the same compound?
**A.** Not Active

**Q.** And the inhibition [12]?
**A.** inactive

**Q.** What about the Activity (HEK293) of the same compound?
**A.** Non-Toxic

**Q.** What about the remaining at 0 min, 10 µM [13] of the same compound?
**A.** 100%

**Q.** What about the Activity (HepG2 [14]) of the same compound?
**A.** Non-Toxic

**Q.** What about the remaining at 0.25 h, 10 µM [15] of the same compound?
**A.** 98%

**Q.** What about the inhibition [16] of the same compound?
**A.** inactive

**Q.** What about the Activity (HeLa) of the same compound?
**A.** Non-Toxic

**Q.** And the inhibition [17]?
**A.** inactive

**Q.** What about the inhibition [2] of the same compound?
**A.** inactive

**Q.** With O=C(O)Cc1ccc(NC(=O)c2ccccc2-c2ccccc2)cc1 as the compound, how does the inhibition [3] read?
**A.** inactive
